Source: US20240238314A1, “TREATMENT OF ESSENTIAL TREMOR” (Sage Therapeutics, Inc., priority 2021, published 2024)
Entries after “also recorded” stand apart in the source; their conditions may differ.

Tested on: individuals with essential tremor
Test: Phase 2 study, Compound 1 60 mg once daily for 28 days: safety and tolerability (TEAEs, dose reduction, discontinuation; Safety Set)
Format: in vivo, human
Experimental: • Incidence of treatment-emergent adverse events (TEAEs). • Safety and tolerability of Compound 1 as assessed by change from baseline in vital signs, electrocardiograms (ECGs), clinical laboratory parameters, and Columbia-Suicide Severity Rating Scale (C-SSRS). • Physician Withdrawal Checklist (PWC-20).
Participants were randomized to receive Compound 1 60 mg or placebo once daily in the morning on a 1:1 basis. If participants reported a TEAE considered by investigator to be related to Compound 1 and not tolerable, investigator might reduce the dose of Compound 1 from 60 mg in 15 mg decrements (i.e., 60 mg, to 45 mg, to 30 mg), as medically appropriate. If intolerable TEAEs persist at the 30 mg dose, Compound 1 was permanently stopped.
Participants were monitored for safety during the Treatment and Follow-up Periods (through Study Day 45 [±3 days]) including monitoring for AEs/serious AEs (SAEs), routine clinical laboratory assessments, physical examination, vital signs, and ECG, etc.
Safety Set: defined as all participants who received at least one dose of Compound 1. The Safety Set was used to provide descriptive summaries of the safety data.
The safety and tolerability of Compound 1 were evaluated by adverse events, concomitant medication usage, changes from baseline in physical examination, vital signs, clinical laboratory evaluations, and 12-lead ECG. Suicidality was monitored by the C-SSRS. Safety data were listed by subject and by study drug and summarized descriptively. All safety summaries were performed on the Safety Set.
The incidence of adverse events were summarized by system organ class, and preferred term for subjects in Safety Set.

[1] = Safety Set, N = 34, listed as Cmpd 1

Compound: COC[C@@]1(O)CC[C@H]2[C@@H](CC[C@@H]3[C@@H]2CC[C@]2(C)[C@@H](C(=O)Cn4nnc(C)n4)CC[C@@H]32)C1 [Compound 1]
- Participants with early discontinuation of the study at 60 mg, number: 5
- Down-titration of dose, percent of patients (60 mg down-titrated to 45 mg or 30 mg): 62%
- Early treatment discontinuation, reason Physician Decision, number (N = 34): 1
- Early treatment discontinuation, reason Physician Decision, percent (N = 34): 2.9%
- Early treatment discontinuation, reason Subject was lost to follow up, number (N = 34): 0
- Early treatment discontinuation, reason Withdrawal by Subject, number (N = 34): 3
- Early treatment discontinuation, reason Withdrawal by Subject, percent (N = 34): 8.8%
- TEAE Asthenia, number of participants (Safety Set, N = 34): 1
- TEAE Asthenia, percent of participants (Safety Set, N = 34): (2.9%)
- TEAE Balance disorder, number of participants (Safety Set, N = 34): 5
- TEAE Balance disorder, percent of participants (Safety Set, N = 34): 15%
- TEAE Coordination abnormal, number of participants (Safety Set, N = 34): 1
- TEAE Coordination abnormal, percent of participants (Safety Set, N = 34): (2.9%)
- TEAE Diarrhoea, number of participants (Safety Set, N = 34): 2
- TEAE Diarrhoea, percent of participants (Safety Set, N = 34): (5.9%)
- TEAE Diplopia, number of participants (Safety Set, N = 34): 4
- TEAE Diplopia, percent of participants (Safety Set, N = 34): 12%
- TEAE Disturbance in attention, number of participants (Safety Set, N = 34): 3
- TEAE Disturbance in attention, percent of participants (Safety Set, N = 34): (8.8%)
- TEAE Dizziness, number of participants (Safety Set, N = 34): 13
- TEAE Dizziness, percent of participants (Safety Set, N = 34): 38%
- TEAE Dysarthria, number of participants (Safety Set, N = 34): 4
- TEAE Dysarthria, percent of participants (Safety Set, N = 34): 12%
- TEAE Fatigue, number of participants (Safety Set, N = 34): 5
- TEAE Fatigue, percent of participants (Safety Set, N = 34): (14.7%)
- TEAE Gait disturbance, number of participants (Safety Set, N = 34): 4
- TEAE Gait disturbance, percent of participants (Safety Set, N = 34): 12%
- TEAE Headache, number of participants (Safety Set, N = 34): 2
- TEAE Headache, percent of participants (Safety Set, N = 34): (5.9%)
- TEAE Insomnia, number of participants (Safety Set, N = 34): 1
- TEAE Insomnia, percent of participants (Safety Set, N = 34): (2.9%)
- TEAE Irritability, number of participants (Safety Set, N = 34): 0
- TEAE Lethargy, number of participants (Safety Set, N = 34): 2
- TEAE Lethargy, percent of participants (Safety Set, N = 34): (5.9%)
- TEAE Mental status changes, number of participants (Safety Set, N = 34): 2
- TEAE Mental status changes, percent of participants (Safety Set, N = 34): (5.9%)
- TEAE Myalgia, number of participants (Safety Set, N = 34): 0
- TEAE Myoclonus, number of participants (Safety Set, N = 34): 3
- TEAE Myoclonus, percent of participants (Safety Set, N = 34): (8.8%)
- TEAE Paraesthesia, number of participants (Safety Set, N = 34): 2
- TEAE Paraesthesia, percent of participants (Safety Set, N = 34): (5.9%)
- TEAE Somnolence, number of participants (Safety Set, N = 34): 23
- TEAE Speech disorder, number of participants (Safety Set, N = 34): 2
- TEAE Speech disorder, percent of participants (Safety Set, N = 34): (5.9%)
- TEAE Urinary tract infection, number of participants (Safety Set, N = 34): 1
- TEAE Urinary tract infection, percent of participants (Safety Set, N = 34): (2.9%)
- TEAE Balance disorder, percent of participants [1]: (14.7%)
- TEAE Diplopia, percent of participants [1]: (11.8%)
- TEAE Dizziness, percent of participants [1]: (38.2%)
- TEAE Dysarthria, percent of participants [1]: (11.8%)
- TEAE Gait disturbance, percent of participants [1]: (11.8%)
- TEAE Somnolence, percent of participants [1]: (67.6%)
- Discontinuations noted, of patients receiving Compound 1 (in vivo): 3800
- Participants with early discontinuation of the study at 60 mg, percent (in vivo): 14.7%
- Severe adverse events (SAEs) reported by one participant, in words (individual participants of the Compound 1 group): mental status changes; also recorded: dehydration; also recorded: headache; also recorded: transient ischaemic attack
- Early treatment discontinuation due to adverse event (TEAEs leading to treatment discontinuation), number (of 34): 9
- Early treatment discontinuation due to adverse event (TEAEs leading to treatment discontinuation), percent (of 34): 26.5%
- Participants reporting TEAEs leading to study discontinuation, number (of 34): 4
- Participants reporting TEAEs leading to study discontinuation, percent (of 34): 11.8%
- Participants reporting TEAEs resulting in treatment dose reduction, number (of 34): 21
- Participants reporting TEAEs resulting in treatment dose reduction, percent (of 34): 61.8%
- Participants reporting severe TEAEs, number (of 34): 11
- Participants reporting severe TEAEs, percent (of 34): 32.4%
- Participants reporting treatment-emergent adverse events (TEAEs), number (of 34): 33
- Participants reporting treatment-emergent adverse events (TEAEs), percent (of 34): 97.1%
- Participants who completed the study at 60 mg dose, number (of 34): 8
- Participants who completed the study at 60 mg dose, percent (of 34): 23.5%
- Participants who had dose reduced to 30 mg from 60 mg directly, number (of 34): 2
- Participants who had dose reduced to 30 mg from 60 mg directly, percent (of 34): 5.9%
- Participants who had dose reduced to 45 mg, number (of 34): 19
- Participants who had dose reduced to 45 mg, percent (of 34): 55.9%
